{
  "source": "patent US20250051260A1",
  "about": "“METHOD FOR PREPARING 4-NITRO-2-(TRIFLUOROMETHYL)ACETOPHENONE AND APPLICATION THEREOF” (MAXUNITECH INC., priority 2022, published 2025)",
  "assay_in_all_cases": "Petri dish test for herbicide bioactivity (NY/T 1155.1-2006)",
  "type_in_all_cases": "in vivo",
  "details_in_all_cases": "7 days after treatment",
  "key": {"Chenopodium album L.": {"tested_on": "Chenopodium album L.", "excerpt": "(§1) Test standard:NY/T 1155.1-2006 Pesticides guidelines for laboratory bioactivity tests. Part 1:Petri dish test for herbicide bioactivity\n(§2) Targets: Echinochloa crusgalli (L.) Beauv, Panicum acroanthum Steud., Solanum nigrum L., Chenopodium album L.\n(§3) Test agent:ethyl 2-(4-nitro-2-trifluoromethylphenyl)-2-cyanopropanoate prepared in Example 1\n(§4) The test agent was weighed and dissolved in DMF to obtain a mother liquor. different amounts of mother liquor were weighed and diluted into water to prepare different doses of the test agent.\n(§5) Test method:Petri dish test\n(§6) 1 test agent, 1 CK (clean water control), 4 targets, and 2 replicate tests per treatment were required. Test method includes the following steps:putting two filter papers on a Petri dish with a diameter of 9 cm; adding 8 mL of the prepared test agent of different concentrations; putting 10 uniform weed seeds; and then placing in an incubator (30° C./25° C., light for 12 h/for dark 12 h). After treatment, the growth state of the test target was regularly observed, the comprehensive growth inhibition rate of each agent was visually investigated with CK about 7 days after the treatment, and the number of seedlings, stem length and root length of plants were measured, and the mergence rate, stem length, and root length and inhibition rate were calculated compared with CK."}, "[1]": {"tested_on": "Echinochloa crusgalli (L.) Beauv", "excerpt": "as §1, §2, §3, §4, §5, §6"}, "[2]": {"tested_on": "Panicum acroanthum Steud.", "excerpt": "as §1, §2, §3, §4, §5, §6"}, "Solanum nigrum L.": {"tested_on": "Solanum nigrum L.", "excerpt": "as §1, §2, §3, §4, §5, §6"}},
  "data": [
    {"smiles": "CCOC(=O)C(C)(C#N)c1ccc([N+](=O)[O-])cc1C(F)(F)F", "note": "(stereo not drawn) [ethyl 2-(4-nitro-2-trifluoromethylphenyl)-2-cyanopropanoate]", "values": [
      {"measurement": "Emergence rate, inhibition rate", "setting": "Chenopodium album L.; agent concentration 100", "result": 63.6, "unit": "%"},
      {"measurement": "Root length, inhibition rate", "setting": "Chenopodium album L.; agent concentration 100", "result": 100.0, "unit": "%"},
      {"measurement": "Stem length, inhibition rate", "setting": "Chenopodium album L.; agent concentration 100", "result": 70.4, "unit": "%"},
      {"measurement": "Emergence rate, inhibition rate", "setting": "Chenopodium album L.; agent concentration 500", "result": 100.0, "unit": "%"},
      {"measurement": "Root length, inhibition rate", "setting": "Chenopodium album L.; agent concentration 500", "result": 100.0, "unit": "%"},
      {"measurement": "Stem length, inhibition rate", "setting": "Chenopodium album L.; agent concentration 500", "result": 100.0, "unit": "%"},
      {"measurement": "Emergence rate, inhibition rate", "setting": "Chenopodium album L.; agent concentration 1000", "result": 100.0, "unit": "%"},
      {"measurement": "Root length, inhibition rate", "setting": "Chenopodium album L.; agent concentration 1000", "result": 100.0, "unit": "%"},
      {"measurement": "Stem length, inhibition rate", "setting": "Chenopodium album L.; agent concentration 1000", "result": 100.0, "unit": "%"},
      {"measurement": "Emergence rate, inhibition rate", "setting": "[1]; agent concentration 500", "result": 100.0, "unit": "%"},
      {"measurement": "Root length, inhibition rate", "setting": "[1]; agent concentration 500", "result": 100.0, "unit": "%"},
      {"measurement": "Stem length, inhibition rate", "setting": "[1]; agent concentration 500", "result": 100.0, "unit": "%"},
      {"measurement": "Emergence rate, inhibition rate", "setting": "[1]; agent concentration 1000", "result": 100.0, "unit": "%"},
      {"measurement": "Root length, inhibition rate", "setting": "[1]; agent concentration 1000", "result": 100.0, "unit": "%"},
      {"measurement": "Stem length, inhibition rate", "setting": "[1]; agent concentration 1000", "result": 100.0, "unit": "%"},
      {"measurement": "Emergence rate, inhibition rate", "setting": "[2]; agent concentration 500", "result": 100.0, "unit": "%"},
      {"measurement": "Root length, inhibition rate", "setting": "[2]; agent concentration 500", "result": 100.0, "unit": "%"},
      {"measurement": "Stem length, inhibition rate", "setting": "[2]; agent concentration 500", "result": 100.0, "unit": "%"},
      {"measurement": "Emergence rate, inhibition rate", "setting": "[2]; agent concentration 1000", "result": 100.0, "unit": "%"},
      {"measurement": "Root length, inhibition rate", "setting": "[2]; agent concentration 1000", "result": 100.0, "unit": "%"},
      {"measurement": "Stem length, inhibition rate", "setting": "[2]; agent concentration 1000", "result": 100.0, "unit": "%"},
      {"measurement": "Emergence rate, inhibition rate", "setting": "Solanum nigrum L.; agent concentration 500", "result": 100.0, "unit": "%"},
      {"measurement": "Root length, inhibition rate", "setting": "Solanum nigrum L.; agent concentration 500", "result": 100.0, "unit": "%"},
      {"measurement": "Stem length, inhibition rate", "setting": "Solanum nigrum L.; agent concentration 500", "result": 100.0, "unit": "%"},
      {"measurement": "Emergence rate, inhibition rate", "setting": "Solanum nigrum L.; agent concentration 1000", "result": 100.0, "unit": "%"},
      {"measurement": "Root length, inhibition rate", "setting": "Solanum nigrum L.; agent concentration 1000", "result": 100.0, "unit": "%"},
      {"measurement": "Stem length, inhibition rate", "setting": "Solanum nigrum L.; agent concentration 1000", "result": 100.0, "unit": "%"}
    ]}
  ]
}
